These compounds were tested on MCH receptors (assay: MCH receptor activity class (method not given)). Settings: class by percent of control at 10^-7 M or IC50.

| SMILES | class |
| --- | --- |
| CCN(CC)c1ccc(CNC[C@H]2CC[C@@H](Nc3nccc(N(C)C)n3)CC2)cc1 [compound 1271] | 2 (Class 2: The value of percent of control at 10^−7 M was from 40% to 60% or the value of IC′50 was from 50 nM to 200 nM.) |
| CN(C)c1ccc(CNC[C@H]2CC[C@@H](Nc3nccc(N(C)C)n3)CC2)cc1 [compound 1272] | 3 (Class 3 The value of percent of control at 10^−7 M was more than 60% or the value of IC50 was more than 200 nM.) |
| CCn1c2ccccc2c2cc(CNC[C@H]3CC[C@@H](Nc4nccc(N(C)C)n4)CC3)ccc21 [compound 1273] | 1 (Class 1: The value of percent of control at 10^−7 M was less than 40% or the value of IC50 was less than 50 nM.) |
| CN(C)c1ccnc(N[C@H]2CC[C@@H](CNCc3cc(C(F)(F)F)ccc3F)CC2)n1 [compound 1274] | 3 (Class 3 The value of percent of control at 10^−7 M was more than 60% or the value of IC50 was more than 200 nM.) |
| CN(C)c1ccnc(N[C@H]2CC[C@@H](CNCc3ccc(O)cc3)CC2)n1 [compound 1275] | 3 (Class 3 The value of percent of control at 10^−7 M was more than 60% or the value of IC50 was more than 200 nM.) |
| CN(C)c1ccnc(N[C@H]2CC[C@@H](CNCc3ccc(CO)o3)CC2)n1 [compound 1276] | 3 (Class 3 The value of percent of control at 10^−7 M was more than 60% or the value of IC50 was more than 200 nM.) |
| CC(C)Oc1ccc(CNC[C@H]2CC[C@@H](Nc3nccc(N(C)C)n3)CC2)cc1 [compound 1277] | 2 (Class 2: The value of percent of control at 10^−7 M was from 40% to 60% or the value of IC′50 was from 50 nM to 200 nM.) |
| CCc1ccc(CNC[C@H]2CC[C@@H](Nc3nccc(N(C)C)n3)CC2)s1 [compound 1278] | 3 (Class 3 The value of percent of control at 10^−7 M was more than 60% or the value of IC50 was more than 200 nM.) |
| CN(C)c1ccnc(N[C@H]2CC[C@@H](CNCC=C(c3ccccc3)c3ccccc3)CC2)n1 [compound 1279] | 1 (Class 1: The value of percent of control at 10^−7 M was less than 40% or the value of IC50 was less than 50 nM.) |
| CCOc1cc(CNC[C@H]2CC[C@@H](Nc3nccc(N(C)C)n3)CC2)ccc1O [compound 1280] | 2 (Class 2: The value of percent of control at 10^−7 M was from 40% to 60% or the value of IC′50 was from 50 nM to 200 nM.) |
| CN(C)c1ccnc(N[C@H]2CC[C@@H](CNCc3ccc(N(C)C)c4ccccc34)CC2)n1 [compound 1281] | 2 (Class 2: The value of percent of control at 10^−7 M was from 40% to 60% or the value of IC′50 was from 50 nM to 200 nM.) |
| COc1cc(OC)c(CNC[C@H]2CC[C@@H](Nc3nccc(N(C)C)n3)CC2)c(OC)c1 [compound 1282] | 1 (Class 1: The value of percent of control at 10^−7 M was less than 40% or the value of IC50 was less than 50 nM.) |
| CN(C)c1ccnc(N[C@H]2CC[C@@H](CNCc3cc(Cl)cc(Br)c3O)CC2)n1 [compound 1283] | 3 (Class 3 The value of percent of control at 10^−7 M was more than 60% or the value of IC50 was more than 200 nM.) |
| CN(C)c1ccnc(N[C@H]2CC[C@@H](CNCc3cccc(C#N)c3)CC2)n1 [compound 1284] | 3 (Class 3 The value of percent of control at 10^−7 M was more than 60% or the value of IC50 was more than 200 nM.) |
| COc1ccc(F)c(CNC[C@H]2CC[C@@H](Nc3nccc(N(C)C)n3)CC2)c1 [compound 1285] | 3 (Class 3 The value of percent of control at 10^−7 M was more than 60% or the value of IC50 was more than 200 nM.) |
| CN(C)c1ccnc(N[C@H]2CC[C@@H](CNCc3ccccc3SC(F)(F)F)CC2)n1 [compound 1286] | 3 (Class 3 The value of percent of control at 10^−7 M was more than 60% or the value of IC50 was more than 200 nM.) |
| CCOc1ccc(Br)cc1CNC[C@H]1CC[C@@H](Nc2nccc(N(C)C)n2)CC1 [compound 1287] | 1 (Class 1: The value of percent of control at 10^−7 M was less than 40% or the value of IC50 was less than 50 nM.) |
| COc1ccc(CNC[C@H]2CC[C@@H](Nc3nccc(N(C)C)n3)CC2)c(OC)c1C [compound 1288] | 1 (Class 1: The value of percent of control at 10^−7 M was less than 40% or the value of IC50 was less than 50 nM.) |
| CN(C)c1ccnc(N[C@H]2CC[C@@H](CNCc3ccccc3OC(F)(F)F)CC2)n1 [compound 1289] | 3 (Class 3 The value of percent of control at 10^−7 M was more than 60% or the value of IC50 was more than 200 nM.) |
| CCOc1ccc(OCC)c(CNC[C@H]2CC[C@@H](Nc3nccc(N(C)C)n3)CC2)c1 [compound 1290] | 1 (Class 1: The value of percent of control at 10^−7 M was less than 40% or the value of IC50 was less than 50 nM.) |
| CCOc1ccc(CNC[C@H]2CC[C@@H](Nc3nccc(N(C)C)n3)CC2)c(OCC)c1 [compound 1291] | 2 (Class 2: The value of percent of control at 10^−7 M was from 40% to 60% or the value of IC′50 was from 50 nM to 200 nM.) |
| COc1c(Br)cc(Br)cc1CNC[C@H]1CC[C@@H](Nc2nccc(N(C)C)n2)CC1 [compound 1292] | 1 (Class 1: The value of percent of control at 10^−7 M was less than 40% or the value of IC50 was less than 50 nM.) |
| CN(C)c1ccnc(N[C@H]2CC[C@@H](CNCc3ccccc3OC(F)F)CC2)n1 [compound 1293] | 3 (Class 3 The value of percent of control at 10^−7 M was more than 60% or the value of IC50 was more than 200 nM.) |

| SMILES | class |
| --- | --- |
| COc1ccc(F)cc1CNC[C@H]1CC[C@@H](Nc2nccc(N(C)C)n2)CC1 [compound 1294] | 3 (Class 3 The value of percent of control at 10^−7 M was more than 60% or the value of IC50 was more than 200 nM.) |
| CCOc1cc(OCC)c(OCC)cc1CNC[C@H]1CC[C@@H](Nc2nccc(N(C)C)n2)CC1 [compound 1295] | 1 (Class 1: The value of percent of control at 10^−7 M was less than 40% or the value of IC50 was less than 50 nM.) |
| COc1cc(OC)c(OC)cc1CNC[C@H]1CC[C@@H](Nc2nccc(N(C)C)n2)CC1 [compound 1296] | 2 (Class 2: The value of percent of control at 10^−7 M was from 40% to 60% or the value of IC′50 was from 50 nM to 200 nM.) |
| COc1cccc(CNC[C@H]2CC[C@@H](Nc3nccc(N(C)C)n3)CC2)c1OC [compound 1297] | 3 (Class 3 The value of percent of control at 10^−7 M was more than 60% or the value of IC50 was more than 200 nM.) |
| C=CCOc1ccccc1CNC[C@H]1CC[C@@H](Nc2nccc(N(C)C)n2)CC1 [compound 1298] | 1 (Class 1: The value of percent of control at 10^−7 M was less than 40% or the value of IC50 was less than 50 nM.) |
| CN(C)c1ccnc(N[C@H]2CC[C@@H](CNCc3csc4ccccc34)CC2)n1 [compound 1299] | 3 (Class 3 The value of percent of control at 10^−7 M was more than 60% or the value of IC50 was more than 200 nM.) |
| CN(C)c1ccnc(N[C@H]2CC[C@@H](CNCc3cn(C)c4ccccc34)CC2)n1 [compound 1300] | 2 (Class 2: The value of percent of control at 10^−7 M was from 40% to 60% or the value of IC′50 was from 50 nM to 200 nM.) |
| Cc1ccc(CNC[C@H]2CC[C@@H](Nc3nccc(N(C)C)n3)CC2)s1 [compound 1301] | 3 (Class 3 The value of percent of control at 10^−7 M was more than 60% or the value of IC50 was more than 200 nM.) |
| Cc1cc(C)c(CNC[C@H]2CC[C@@H](Nc3nccc(N(C)C)n3)CC2)c(C)c1 [compound 1302] | 3 (Class 3 The value of percent of control at 10^−7 M was more than 60% or the value of IC50 was more than 200 nM.) |
| CN(C)c1ccnc(N[C@H]2CC[C@@H](CNCc3ccc4c(c3)OCO4)CC2)n1 [compound 1303] | 3 (Class 3 The value of percent of control at 10^−7 M was more than 60% or the value of IC50 was more than 200 nM.) |
| CN(C)c1ccnc(N[C@H]2CC[C@@H](CNCc3ccsc3)CC2)n1 [compound 1304] | 3 (Class 3 The value of percent of control at 10^−7 M was more than 60% or the value of IC50 was more than 200 nM.) |
| Cc1cccc(CNC[C@H]2CC[C@@H](Nc3nccc(N(C)C)n3)CC2)c1 [compound 1305] | 3 (Class 3 The value of percent of control at 10^−7 M was more than 60% or the value of IC50 was more than 200 nM.) |
| Cc1ccccc1CNC[C@H]1CC[C@@H](Nc2nccc(N(C)C)n2)CC1 [compound 1306] | 3 (Class 3 The value of percent of control at 10^−7 M was more than 60% or the value of IC50 was more than 200 nM.) |
| Cc1ccc(CNC[C@H]2CC[C@@H](Nc3nccc(N(C)C)n3)CC2)cc1 [compound 1307] | 3 (Class 3 The value of percent of control at 10^−7 M was more than 60% or the value of IC50 was more than 200 nM.) |
| CN(C)c1ccnc(N[C@H]2CC[C@@H](CNCc3cc(Cl)cc(Cl)c3)CC2)n1 [compound 1308] | 3 (Class 3 The value of percent of control at 10^−7 M was more than 60% or the value of IC50 was more than 200 nM.) |
| COc1cc(CNC[C@H]2CC[C@@H](Nc3nccc(N(C)C)n3)CC2)cc2c1OCO2 [compound 1309] | 1 (Class 1: The value of percent of control at 10^−7 M was less than 40% or the value of IC50 was less than 50 nM.) |
| COc1cc(CNC[C@H]2CC[C@@H](Nc3nccc(N(C)C)n3)CC2)cc(Br)c1OC [compound 1310] | 1 (Class 1: The value of percent of control at 10^−7 M was less than 40% or the value of IC50 was less than 50 nM.) |
| COc1ccc(CNC[C@H]2CC[C@@H](Nc3nccc(N(C)C)n3)CC2)cc1C [compound 1311] | 2 (Class 2: The value of percent of control at 10^−7 M was from 40% to 60% or the value of IC′50 was from 50 nM to 200 nM.) |
| COc1cc(Br)c(CNC[C@H]2CC[C@@H](Nc3nccc(N(C)C)n3)CC2)cc1OC [compound 1312] | 2 (Class 2: The value of percent of control at 10^−7 M was from 40% to 60% or the value of IC′50 was from 50 nM to 200 nM.) |
| Cc1oc(-c2ccccc2)cc1CNC[C@H]1CC[C@@H](Nc2nccc(N(C)C)n2)CC1 [compound 1313] | 3 (Class 3 The value of percent of control at 10^−7 M was more than 60% or the value of IC50 was more than 200 nM.) |
| COc1ccc(CNC[C@H]2CC[C@@H](Nc3nccc(N(C)C)n3)CC2)cc1OC [compound 1314] | 2 (Class 2: The value of percent of control at 10^−7 M was from 40% to 60% or the value of IC′50 was from 50 nM to 200 nM.) |
| Cc1cc(CNC[C@H]2CC[C@@H](Nc3nccc(N(C)C)n3)CC2)ccc1O [compound 1315] | 3 (Class 3 The value of percent of control at 10^−7 M was more than 60% or the value of IC50 was more than 200 nM.) |
